Test results reported in PMC11968843, “Sulphostin-inspired N-phosphonopiperidones as selective covalent DPP8 and DPP9 inhibitors” (Nature Communications, 2025).

What was measured:
Experiment in all cases: Competitive ABPP / direct target identification with alkyne probe 9 in HEK293 cell lysates
Assay type in all cases: binding, H. sapiens
[1] = target: T1, HEK293 cell lysates (proteome-wide targets of probe 9) (Homo sapiens, UniProt P04075); conditions: protein ALDOA
T1 construct: endogenous in cells; host or cells: HEK293 cell lysate

[2] = target: T2, HEK293 cell lysates (proteome-wide targets of probe 9) (Homo sapiens, UniProt Q02790); conditions: protein FKBP4
T2 construct: endogenous in cells; host or cells: HEK293 cell lysate

[3] = target: T3, HEK293 cell lysates (proteome-wide targets of probe 9) (Homo sapiens, UniProt P59998); conditions: protein ARPC4
T3 construct: endogenous in cells; host or cells: HEK293 cell lysate

[4] = target: T4, HEK293 cell lysates (proteome-wide targets of probe 9) (Homo sapiens, UniProt P07437); conditions: protein TUBB
T4 construct: endogenous in cells; host or cells: HEK293 cell lysate
T4 sequence (P07437 whole entry): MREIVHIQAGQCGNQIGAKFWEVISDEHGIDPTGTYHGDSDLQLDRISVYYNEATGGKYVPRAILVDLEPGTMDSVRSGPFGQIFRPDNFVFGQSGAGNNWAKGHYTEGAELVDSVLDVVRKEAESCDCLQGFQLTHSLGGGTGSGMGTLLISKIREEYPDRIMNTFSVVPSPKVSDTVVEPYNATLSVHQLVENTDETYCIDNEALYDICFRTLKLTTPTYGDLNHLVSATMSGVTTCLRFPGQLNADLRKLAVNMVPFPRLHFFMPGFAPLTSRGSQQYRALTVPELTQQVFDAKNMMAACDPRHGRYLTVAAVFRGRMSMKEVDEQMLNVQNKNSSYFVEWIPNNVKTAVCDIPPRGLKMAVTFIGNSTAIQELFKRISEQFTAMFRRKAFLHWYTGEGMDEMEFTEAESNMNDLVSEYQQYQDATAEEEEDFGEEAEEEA

[5] = target: T5, HEK293 cell lysates (proteome-wide targets of probe 9) (Homo sapiens, UniProt P11142); conditions: protein HSPA8
T5 construct: endogenous in cells; host or cells: HEK293 cell lysate

[6] = target: T6, HEK293 cell lysates (proteome-wide targets of probe 9) (Homo sapiens, UniProt P05455); conditions: protein SSB
T6 construct: endogenous in cells; host or cells: HEK293 cell lysate

[7] = target: T7, HEK293 cell lysates (proteome-wide targets of probe 9) (Homo sapiens, UniProt P49368); conditions: protein CCT3
T7 construct: endogenous in cells; host or cells: HEK293 cell lysate
T7 sequence (P49368 whole entry): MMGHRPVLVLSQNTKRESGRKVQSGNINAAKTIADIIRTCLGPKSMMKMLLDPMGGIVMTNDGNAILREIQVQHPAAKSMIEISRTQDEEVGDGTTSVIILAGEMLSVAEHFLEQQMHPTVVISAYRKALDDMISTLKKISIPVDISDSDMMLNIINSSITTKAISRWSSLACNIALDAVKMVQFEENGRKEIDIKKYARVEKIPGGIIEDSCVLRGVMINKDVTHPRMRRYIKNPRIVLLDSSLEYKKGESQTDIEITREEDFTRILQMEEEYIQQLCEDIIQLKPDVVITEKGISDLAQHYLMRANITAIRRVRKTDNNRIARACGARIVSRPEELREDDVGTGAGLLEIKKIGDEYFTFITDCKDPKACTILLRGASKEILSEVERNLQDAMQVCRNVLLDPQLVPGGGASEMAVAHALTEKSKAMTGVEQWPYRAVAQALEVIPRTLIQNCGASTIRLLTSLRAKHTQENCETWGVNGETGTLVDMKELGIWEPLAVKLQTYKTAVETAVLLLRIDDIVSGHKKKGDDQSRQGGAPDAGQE

[8] = target: T8, HEK293 cell lysates (proteome-wide targets of probe 9) (Homo sapiens, UniProt P13639); conditions: protein EEF2
T8 construct: endogenous in cells; host or cells: HEK293 cell lysate

[9] = target: T9, HEK293 cell lysates (proteome-wide targets of probe 9) (Homo sapiens, UniProt Q9NR30); conditions: protein DDX21
T9 construct: endogenous in cells; host or cells: HEK293 cell lysate

[10] = target: T10, HEK293 cell lysates (proteome-wide targets of probe 9) (Homo sapiens, UniProt P78371); conditions: protein CCT2
T10 construct: endogenous in cells; host or cells: HEK293 cell lysate

[11] = target: T11, HEK293 cell lysates (proteome-wide targets of probe 9) (Homo sapiens, UniProt P22234); conditions: protein PAICS
T11 construct: endogenous in cells; host or cells: HEK293 cell lysate
T11 sequence (P22234 whole entry): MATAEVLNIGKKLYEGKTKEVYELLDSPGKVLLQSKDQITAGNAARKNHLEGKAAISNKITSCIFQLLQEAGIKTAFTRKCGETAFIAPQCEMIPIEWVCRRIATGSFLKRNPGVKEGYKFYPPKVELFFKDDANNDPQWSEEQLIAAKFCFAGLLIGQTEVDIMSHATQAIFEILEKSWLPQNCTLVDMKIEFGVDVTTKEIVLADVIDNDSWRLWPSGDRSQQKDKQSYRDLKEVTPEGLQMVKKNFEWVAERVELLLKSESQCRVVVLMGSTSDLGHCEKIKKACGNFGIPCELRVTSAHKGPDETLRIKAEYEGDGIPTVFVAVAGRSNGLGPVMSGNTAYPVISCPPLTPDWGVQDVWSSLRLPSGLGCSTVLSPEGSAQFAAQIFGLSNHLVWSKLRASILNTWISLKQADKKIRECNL

[12] = target: T12, HEK293 cell lysates (proteome-wide targets of probe 9) (Homo sapiens, UniProt P48147); conditions: protein PREP (Prolyl endopeptidase)
T12 construct: endogenous in cells; host or cells: HEK293 cell lysate
T12 sequence (P48147 whole entry): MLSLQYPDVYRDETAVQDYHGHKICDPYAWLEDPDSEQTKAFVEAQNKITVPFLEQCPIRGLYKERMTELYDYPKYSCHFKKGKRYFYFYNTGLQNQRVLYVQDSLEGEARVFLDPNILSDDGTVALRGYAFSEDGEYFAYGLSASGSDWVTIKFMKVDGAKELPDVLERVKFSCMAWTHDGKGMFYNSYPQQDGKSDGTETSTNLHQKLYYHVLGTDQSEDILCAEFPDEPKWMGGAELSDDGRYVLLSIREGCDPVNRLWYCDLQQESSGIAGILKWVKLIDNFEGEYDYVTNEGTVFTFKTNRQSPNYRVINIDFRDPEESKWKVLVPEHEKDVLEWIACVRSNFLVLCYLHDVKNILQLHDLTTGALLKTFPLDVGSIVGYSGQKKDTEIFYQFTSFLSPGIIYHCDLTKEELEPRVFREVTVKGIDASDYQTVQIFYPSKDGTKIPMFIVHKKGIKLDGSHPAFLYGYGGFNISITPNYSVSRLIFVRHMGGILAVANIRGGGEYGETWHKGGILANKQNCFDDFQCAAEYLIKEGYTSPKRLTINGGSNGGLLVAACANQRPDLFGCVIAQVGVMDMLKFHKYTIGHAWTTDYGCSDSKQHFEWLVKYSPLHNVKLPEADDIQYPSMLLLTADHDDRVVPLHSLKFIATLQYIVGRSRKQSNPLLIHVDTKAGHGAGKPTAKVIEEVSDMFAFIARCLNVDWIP

[13] = target: T13, HEK293 cell lysates (proteome-wide targets of probe 9) (Homo sapiens, UniProt P22626); conditions: protein HNRNPA2B1;HNRPA2B1
T13 construct: endogenous in cells; host or cells: HEK293 cell lysate

[14] = target: T14, HEK293 cell lysates (proteome-wide targets of probe 9) (Homo sapiens, UniProt P11586); conditions: protein MTHFD1
T14 construct: endogenous in cells; host or cells: HEK293 cell lysate

[15] = target: T15, HEK293 cell lysates (proteome-wide targets of probe 9) (Homo sapiens, UniProt P05387); conditions: protein RPLP2
T15 construct: endogenous in cells; host or cells: HEK293 cell lysate
T15 sequence (P05387 whole entry): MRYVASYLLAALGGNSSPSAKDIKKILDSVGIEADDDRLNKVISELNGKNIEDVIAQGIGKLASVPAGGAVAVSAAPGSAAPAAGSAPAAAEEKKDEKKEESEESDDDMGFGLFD

[16] = target: T16, HEK293 cell lysates (proteome-wide targets of probe 9) (Homo sapiens, UniProt P62280); conditions: protein RPS11
T16 construct: endogenous in cells; host or cells: HEK293 cell lysate

[17] = target: T17, HEK293 cell lysates (proteome-wide targets of probe 9) (Homo sapiens, UniProt P62805); conditions: protein HIST1H4A
T17 construct: endogenous in cells; host or cells: HEK293 cell lysate

[18] = target: T18, HEK293 cell lysates (proteome-wide targets of probe 9) (Homo sapiens, UniProt P40926); conditions: protein MDH2
T18 construct: endogenous in cells; host or cells: HEK293 cell lysate

[19] = target: T19, HEK293 cell lysates (proteome-wide targets of probe 9) (Homo sapiens, UniProt P37837); conditions: protein TALDO1
T19 construct: endogenous in cells; host or cells: HEK293 cell lysate

[20] = target: T20, HEK293 cell lysates (proteome-wide targets of probe 9) (Homo sapiens, UniProt P50914); conditions: protein RPL14
T20 construct: endogenous in cells; host or cells: HEK293 cell lysate

[21] = target: T21, HEK293 cell lysates (proteome-wide targets of probe 9) (Homo sapiens, UniProt P07737); conditions: protein PFN1
T21 construct: endogenous in cells; host or cells: HEK293 cell lysate

[22] = target: T22, HEK293 cell lysates (proteome-wide targets of probe 9) (Homo sapiens, UniProt P08865); conditions: protein RPSA
T22 construct: endogenous in cells; host or cells: HEK293 cell lysate

[23] = target: T23, HEK293 cell lysates (proteome-wide targets of probe 9) (Homo sapiens, UniProt P23526); conditions: protein AHCY
T23 construct: endogenous in cells; host or cells: HEK293 cell lysate

[24] = target: T24, HEK293 cell lysates (proteome-wide targets of probe 9) (Homo sapiens, UniProt P23396); conditions: protein RPS3
T24 construct: endogenous in cells; host or cells: HEK293 cell lysate

[25] = target: T25, HEK293 cell lysates (proteome-wide targets of probe 9) (Homo sapiens, UniProt Q07020); conditions: protein RPL18
T25 construct: endogenous in cells; host or cells: HEK293 cell lysate

[26] = target: T26, HEK293 cell lysates (proteome-wide targets of probe 9) (Homo sapiens, UniProt P05165); conditions: protein PCCA
T26 construct: endogenous in cells; host or cells: HEK293 cell lysate

[27] = target: T27, HEK293 cell lysates (proteome-wide targets of probe 9) (Homo sapiens, UniProt P53396); conditions: protein ACLY
T27 construct: endogenous in cells; host or cells: HEK293 cell lysate

[28] = target: T28, HEK293 cell lysates (proteome-wide targets of probe 9) (Homo sapiens, UniProt Q86TI2); conditions: protein DPP9 (Dipeptidyl peptidase 9)
T28 construct: endogenous in cells; host or cells: HEK293 cell lysate

[29] = target: T29, HEK293 cell lysates (proteome-wide targets of probe 9) (Homo sapiens, UniProt P32119); conditions: protein PRDX2
T29 construct: endogenous in cells; host or cells: HEK293 cell lysate
T29 sequence (P32119 whole entry): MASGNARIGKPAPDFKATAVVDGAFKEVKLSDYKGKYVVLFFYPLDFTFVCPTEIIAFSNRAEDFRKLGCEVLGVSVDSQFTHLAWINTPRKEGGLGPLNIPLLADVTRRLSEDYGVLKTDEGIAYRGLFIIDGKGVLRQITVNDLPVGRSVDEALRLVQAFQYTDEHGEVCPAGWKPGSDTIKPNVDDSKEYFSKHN

[30] = target: T30, HEK293 cell lysates (proteome-wide targets of probe 9) (Homo sapiens, UniProt P49327); conditions: protein FASN
T30 construct: endogenous in cells; host or cells: HEK293 cell lysate
T30 sequence (P49327 whole entry): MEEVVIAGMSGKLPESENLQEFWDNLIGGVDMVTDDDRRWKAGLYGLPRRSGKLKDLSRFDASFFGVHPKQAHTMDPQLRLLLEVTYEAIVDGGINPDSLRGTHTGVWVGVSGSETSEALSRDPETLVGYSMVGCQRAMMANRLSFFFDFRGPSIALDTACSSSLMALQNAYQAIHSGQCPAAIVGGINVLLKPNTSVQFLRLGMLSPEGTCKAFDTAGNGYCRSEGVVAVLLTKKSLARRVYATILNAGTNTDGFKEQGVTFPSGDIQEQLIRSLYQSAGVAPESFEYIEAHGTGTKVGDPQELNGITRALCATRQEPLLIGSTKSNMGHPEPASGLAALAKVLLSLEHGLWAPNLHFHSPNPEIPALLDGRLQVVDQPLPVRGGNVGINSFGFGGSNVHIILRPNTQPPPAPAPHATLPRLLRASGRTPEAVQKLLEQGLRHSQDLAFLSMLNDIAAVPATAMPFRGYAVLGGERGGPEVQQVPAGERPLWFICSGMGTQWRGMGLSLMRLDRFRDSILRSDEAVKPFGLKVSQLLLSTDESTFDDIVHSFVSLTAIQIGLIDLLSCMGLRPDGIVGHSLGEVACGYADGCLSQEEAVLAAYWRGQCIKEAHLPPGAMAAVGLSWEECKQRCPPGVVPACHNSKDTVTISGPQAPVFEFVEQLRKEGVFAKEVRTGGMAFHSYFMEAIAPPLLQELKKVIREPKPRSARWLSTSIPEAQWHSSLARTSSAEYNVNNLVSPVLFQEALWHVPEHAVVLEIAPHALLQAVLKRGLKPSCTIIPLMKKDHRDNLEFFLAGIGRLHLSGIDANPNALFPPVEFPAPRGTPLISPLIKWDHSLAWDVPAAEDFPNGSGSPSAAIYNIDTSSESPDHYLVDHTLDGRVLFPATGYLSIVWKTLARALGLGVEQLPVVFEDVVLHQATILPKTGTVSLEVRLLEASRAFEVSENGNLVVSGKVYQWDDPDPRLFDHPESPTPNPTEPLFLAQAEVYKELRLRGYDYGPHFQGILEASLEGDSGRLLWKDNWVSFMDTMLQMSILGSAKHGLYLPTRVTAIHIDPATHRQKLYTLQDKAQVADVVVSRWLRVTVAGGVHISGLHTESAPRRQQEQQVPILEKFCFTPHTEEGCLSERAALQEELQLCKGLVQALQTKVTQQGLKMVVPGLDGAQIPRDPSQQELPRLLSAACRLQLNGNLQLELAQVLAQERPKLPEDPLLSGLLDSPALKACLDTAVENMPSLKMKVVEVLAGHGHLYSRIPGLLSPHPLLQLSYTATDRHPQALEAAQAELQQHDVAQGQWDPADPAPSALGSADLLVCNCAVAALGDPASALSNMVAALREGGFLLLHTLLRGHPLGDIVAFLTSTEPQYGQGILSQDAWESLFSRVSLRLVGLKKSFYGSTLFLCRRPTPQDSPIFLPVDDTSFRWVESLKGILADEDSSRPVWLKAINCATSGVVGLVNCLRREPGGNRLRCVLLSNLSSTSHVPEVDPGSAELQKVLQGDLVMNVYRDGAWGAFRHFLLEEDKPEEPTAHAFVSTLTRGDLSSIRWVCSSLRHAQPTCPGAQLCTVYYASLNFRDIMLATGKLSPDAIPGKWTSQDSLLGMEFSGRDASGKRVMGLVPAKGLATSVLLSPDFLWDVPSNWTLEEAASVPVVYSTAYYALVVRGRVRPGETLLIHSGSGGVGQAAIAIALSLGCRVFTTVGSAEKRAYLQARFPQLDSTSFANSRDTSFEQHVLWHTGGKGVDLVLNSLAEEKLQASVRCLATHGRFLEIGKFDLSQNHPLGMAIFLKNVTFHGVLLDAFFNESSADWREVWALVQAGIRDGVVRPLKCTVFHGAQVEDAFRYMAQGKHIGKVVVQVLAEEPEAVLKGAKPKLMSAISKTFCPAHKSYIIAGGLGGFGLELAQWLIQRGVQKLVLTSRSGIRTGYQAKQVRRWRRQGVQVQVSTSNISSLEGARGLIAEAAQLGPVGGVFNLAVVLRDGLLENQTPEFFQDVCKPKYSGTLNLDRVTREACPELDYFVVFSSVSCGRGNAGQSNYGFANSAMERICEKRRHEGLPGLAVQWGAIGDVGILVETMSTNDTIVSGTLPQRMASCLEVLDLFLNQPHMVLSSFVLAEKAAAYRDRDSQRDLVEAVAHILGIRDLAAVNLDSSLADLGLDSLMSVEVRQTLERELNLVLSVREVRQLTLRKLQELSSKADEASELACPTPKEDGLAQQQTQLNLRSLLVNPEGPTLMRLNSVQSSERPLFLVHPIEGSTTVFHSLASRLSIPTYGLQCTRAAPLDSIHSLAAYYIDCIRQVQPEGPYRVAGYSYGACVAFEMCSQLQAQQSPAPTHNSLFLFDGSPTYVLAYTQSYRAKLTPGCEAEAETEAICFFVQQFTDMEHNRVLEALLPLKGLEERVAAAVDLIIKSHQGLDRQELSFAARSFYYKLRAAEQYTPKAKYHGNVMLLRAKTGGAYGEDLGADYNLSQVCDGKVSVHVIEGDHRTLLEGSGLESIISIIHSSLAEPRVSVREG

[31] = target: T31, HEK293 cell lysates (proteome-wide targets of probe 9) (Homo sapiens, UniProt Q01469); conditions: protein FABP5
T31 construct: endogenous in cells; host or cells: HEK293 cell lysate

In the case of C#CCCCP(=O)(OCC)N1CCCC(N)C1=O.O=C(O)C(F)(F)F (mixture of isomers) [Compound 9], the “Log2-fold change (9/DMSO)” value [1] is reported as 0.3187, the “Log2-fold change (9/DMSO)” value [2] is reported as 0.6761 and the “Log2-fold change (9/DMSO)” value [3] is reported as -0.5289. The “Log2-fold change (9/DMSO)” value [4] was 1.741, the “Log2-fold change (9/DMSO)” value [5] was 0.1798 and the “Log2-fold change (9/DMSO)” value [6] was 1.078. The “Log2-fold change (9/DMSO)” value [7] was 1.2654, the “Log2-fold change (9/DMSO)” value [8] was 0.2112 and the “Log2-fold change (9/DMSO)” value [9] was 0.9591. The “Log2-fold change (9/DMSO)” value [10] was 1.1495, the “Log2-fold change (9/DMSO)” value [11] was -0.1992 and the “Log2-fold change (9/DMSO)” value [12] was 4.8. For the same compound, the “Log2-fold change (9/DMSO)” value [13] was -0.2704, the “Log2-fold change (9/DMSO)” value [14] was 0.4766 and the “Log2-fold change (9/DMSO)” value [15] was 0.606. For the same compound, the “Log2-fold change (9/DMSO)” value [16] was -0.5072, the “Log2-fold change (9/DMSO)” value [17] was -0.9831 and the “Log2-fold change (9/DMSO)” value [18] was 0.889. For the same compound, the “Log2-fold change (9/DMSO)” value [19] was 0.3993, the “Log2-fold change (9/DMSO)” value [20] was 0.6133 and the “Log2-fold change (9/DMSO)” value [21] was 0.6639. For the same compound, the “Log2-fold change (9/DMSO)” value [22] was 1.5735, the “Log2-fold change (9/DMSO)” value [23] was -0.3328 and the “Log2-fold change (9/DMSO)” value [24] was 0.2732. For the same compound, the “Log2-fold change (9/DMSO)” value [25] was 1.2987, the “Log2-fold change (9/DMSO)” value [26] was -0.691 and the “Log2-fold change (9/DMSO)” value [27] was 0.4032. For the same compound, the “Log2-fold change (9/DMSO)” value [28] was 5.502, the “Log2-fold change (9/DMSO)” value [29] was 0.06438 and the “Log2-fold change (9/DMSO)” value [30] was 0.4818. For the same compound, the “Log2-fold change (9/DMSO)” value [31] was -0.287.

In the case of CCCCCc1ccc(SCCP(=O)(OCC)N2CCC[C@H](N)C2=O)cc1.O=C(O)C(F)(F)F (some centres unmarked) [Compound 16], the “Log2-fold change (16/9)” value [1] is reported as -0.5623, the “Log2-fold change (16/9)” value [2] is reported as -0.2833 and the “Log2-fold change (16/9)” value [3] is reported as -0.1373. The “Log2-fold change (16/9)” value [4] was -2.286, the “Log2-fold change (16/9)” value [5] was -0.08018 and the “Log2-fold change (16/9)” value [6] was -1.02. The “Log2-fold change (16/9)” value [7] was -1.0355, the “Log2-fold change (16/9)” value [8] was -0.2717 and the “Log2-fold change (16/9)” value [9] was 0.06992. For the same compound, the “Log2-fold change (16/9)” value [10] was -0.827, the “Log2-fold change (16/9)” value [11] was 0.0197 and the “Log2-fold change (16/9)” value [12] was -0.8405. For the same compound, the “Log2-fold change (16/9)” value [13] was -0.7288, the “Log2-fold change (16/9)” value [14] was -0.2924 and the “Log2-fold change (16/9)” value [15] was -0.0326. The “Log2-fold change (16/9)” value [16] was 0.1367, the “Log2-fold change (16/9)” value [17] was 0.1177 and the “Log2-fold change (16/9)” value [18] was -2.217. For the same compound, the “Log2-fold change (16/9)” value [19] was 0.1822, the “Log2-fold change (16/9)” value [20] was -1.54 and the “Log2-fold change (16/9)” value [21] was -2.001. For the same compound, the “Log2-fold change (16/9)” value [22] was -2.215, the “Log2-fold change (16/9)” value [23] was -0.05498 and the “Log2-fold change (16/9)” value [24] was -0.6746. The “Log2-fold change (16/9)” value [25] was -1.003, the “Log2-fold change (16/9)” value [26] was 0.1044 and the “Log2-fold change (16/9)” value [27] was -0.4196. For the same compound, the “Log2-fold change (16/9)” value [28] was -5.229, the “Log2-fold change (16/9)” value [29] was 1.348 and the “Log2-fold change (16/9)” value [30] was -0.4881. For the same compound, the “Log2-fold change (16/9)” value [31] was 0.6319.
